Values quoted from earlier work as cited in patent US20120258972A1, “Composition and Methods for Treating Hair Loss” (priority 2011, published 2012).

Assays:
[1] = molecular target: T1, Type II isozyme of 5-alpha reductase (Homo sapiens, UniProt P31213)
T1 sequence (P31213 1-254): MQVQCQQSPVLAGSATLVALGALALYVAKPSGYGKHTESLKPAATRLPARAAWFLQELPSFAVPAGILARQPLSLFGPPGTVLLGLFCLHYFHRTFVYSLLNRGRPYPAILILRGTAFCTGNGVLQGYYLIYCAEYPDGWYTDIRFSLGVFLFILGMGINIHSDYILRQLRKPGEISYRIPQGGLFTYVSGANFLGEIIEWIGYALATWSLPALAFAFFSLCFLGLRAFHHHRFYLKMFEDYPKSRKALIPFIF

[2] = molecular target: T2, type I isozyme of 5-alpha reductase (Homo sapiens, UniProt P18405)
T2 sequence (P18405 1-259): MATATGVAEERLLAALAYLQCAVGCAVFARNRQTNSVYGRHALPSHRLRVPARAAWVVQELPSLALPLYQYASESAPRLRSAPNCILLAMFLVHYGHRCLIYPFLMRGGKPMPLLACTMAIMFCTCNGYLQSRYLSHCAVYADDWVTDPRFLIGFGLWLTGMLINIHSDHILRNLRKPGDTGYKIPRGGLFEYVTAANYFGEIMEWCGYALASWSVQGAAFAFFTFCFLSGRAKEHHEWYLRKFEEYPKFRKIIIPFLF

[3] = tested on: serum dihydrotestosterone; details: oral
male pattern hair loss = details: oral dutasteride 0.5 mg and 2.5 mg/day; 12 and 24 weeks
[4] = tested on: men with androgenic alopecia; details: ketoconazole shampoo 2% versus 2% minoxidil regimen
C.3H/HeN mice = details: topical application

Structure (SMILES) | Potency relative to finasteride at inhibiting the Type II isozyme of 5-alpha reductase [1] [times] | Potency relative to finasteride at inhibiting the type I isozyme of 5-alpha reductase [2] | Decrease of serum dihydrotestosterone [3] | Hair count compared with 5 mg/day finasteride (male pattern hair loss) | Hair density, size, and proportion of anagen follicles [4] | Effect on hair growth in mice (C.3H/HeN mice)
C[C@]12C=CC(=O)N[C@@H]1CC[C@@H]1[C@@H]2CC[C@]2(C)[C@@H](C(=O)Nc3cc(C(F)(F)F)ccc3C(F)(F)F)CC[C@@H]12 [dutasteride] | 3 | more than 100 times | up to 90% | superior hair count |  | 
CC(C)(C)NC(=O)[C@H]1CC[C@H]2[C@@H]3CC[C@H]4NC(=O)C=C[C@]4(C)[C@H]3CC[C@]12C [finasteride] |  |  | about 70% |  |  | 
CC(=O)N1CCN(c2ccc(OCC3COC(Cn4ccnc4)(c4ccc(Cl)cc4Cl)O3)cc2)CC1 (stereo not shown) [ketoconazole] |  |  |  |  | improved almost similarly | stimulatory effect on hair growth
